# Values of other authors as cited in patent US9339471B2, “Long acting dual release product containing carbinoxamine and pseudoephedrine” (E5 PHARMA, LLC, priority 2007, dated 2016).
# Settings: dependent on urine pH; cited from earlier work
structure (smiles),measurement,value
"CN[C@@H](C)[C@@H](O)c1ccccc1.Cl (relative stereo) [Pseudoephedrine, [S—(R*,R*)]-α-[1-(methylamino)ethyl]-benzenemethanol hydrochloride]",mean elimination half-life,4 to 6 h
